ChEMBL document CHEMBL1146459, “Production of biologically active taxoids by a callus culture of Taxus cuspidata” (2004)

Legend:
SF-295 = experiment: Growth inhibition of human SF295 cells after 48 hrs by SRB assay; assay type: functional; conditions: SF-295, 48 h
SNB-78 = experiment: Growth inhibition of human SNB78 cells after 48 hrs by SRB assay; assay type: functional; conditions: SNB-78, 48 h
MKN-45 = experiment: Growth inhibition of human MKN45 cells after 48 hrs by SRB assay; assay type: functional; conditions: MKN-45, 48 h
St-4 = experiment: Growth inhibition of human St-4 cells after 48 hrs by SRB assay; assay type: functional; conditions: St-4, 48 h
MCF7 = experiment: Growth inhibition of human MCF7 cells after 48 hrs by SRB assay; assay type: functional; conditions: MCF7, 48 h
DMS-273 = experiment: Growth inhibition of human DMS273 cells after 48 hrs by SRB assay; assay type: functional; conditions: DMS-273, 48 h
[1] = Reversal of multidrug resistance in human 2780AD cells assessed as [3H]vincristine accumulation at 0.1 ug/mL after 2 hrs relative to verapamil; assay type: functional, A2780 ADR
DMS-114 = experiment: Growth inhibition of human DMS114 cells after 48 hrs by SRB assay; assay type: functional; conditions: DMS-114, 48 h
[2] = Growth inhibition of human HBC4 cells after 48 hrs by SRB assay; assay type: functional; conditions: HBC4, 48 h
SF-539 = experiment: Growth inhibition of human SF539 cells after 48 hrs by SRB assay; assay type: functional; conditions: SF-539, 48 h
HCT-15 = experiment: Growth inhibition of human HCT15 cells after 48 hrs by SRB assay; assay type: functional; conditions: HCT-15, 48 h
OVCAR-5 = experiment: Growth inhibition of human OVCAR5 cells after 48 hrs by SRB assay; assay type: functional; conditions: OVCAR-5, 48 h
NCI-H23 = experiment: Growth inhibition of human NCI-H23 cells after 48 hrs by SRB assay; assay type: functional; conditions: NCI-H23, 48 h
OVCAR-3 = experiment: Growth inhibition of human OVCAR-3 cells after 48 hrs by SRB assay; assay type: functional; conditions: OVCAR-3, 48 h
A549 = experiment: Growth inhibition of human A549 cells after 48 hrs by SRB assay; assay type: functional; conditions: A549, 48 h
U-251 = experiment: Growth inhibition of human U251 cells after 48 hrs by SRB assay; assay type: functional; conditions: U-251, 48 h
[3] = Growth inhibition of human HBC5 cells after 48 hrs by SRB assay; assay type: functional; conditions: HBC5, 48 h
NCI-H460 = experiment: Growth inhibition of human NCI-H460 cells after 48 hrs by SRB assay; assay type: functional; conditions: NCI-H460, 48 h
[4] = Reversal of multidrug resistance in human 2780AD cells assessed as [3H]vincristine accumulation at 10 ug/mL after 2 hrs relative to verapamil; assay type: functional, A2780 ADR
ACHN = experiment: Growth inhibition of human ACHN cells after 48 hrs by SRB assay; assay type: functional
[5] = Reversal of multidrug resistance in human 2780AD cells assessed as [3H]vincristine accumulation at 1 ug/mL after 2 hrs relative to verapamil; assay type: functional, A2780 ADR
MKN-7 = experiment: Growth inhibition of human MKN7 cells after 48 hrs by SRB assay; assay type: functional; conditions: MKN-7, 48 h
[6] = read-out: LC50 (the source's name)
[7] = read-out: pLC50 (the source's name) (converted)

C=C1[C@@H](OC(C)=O)CC[C@]2(C)[C@@H]1C[C@@H]1C[C@H](OC(C)=O)C(C)=C([C@@H](O)[C@@H]2OC(=O)/C=C/c2ccccc2)C1(C)C
24 µM: GI50 (St-4; read-out: GI50) | GI50 (St-4; read-out: pGI50 (converted))
10 µM: GI50 (SF-295; read-out: GI50)
7.76 µM: GI50 (DMS-114; read-out: pGI50 (converted))
3.2 µM: GI50 (SNB-78; read-out: GI50)
28.8 µM: GI50 (HCT-15; read-out: pGI50 (converted))
89.1 µM: GI50 (ACHN; read-out: pGI50 (converted))
29 µM: GI50 (HCT-15; read-out: GI50)
41.7 µM: GI50 (NCI-H460; read-out: pGI50 (converted))
10.5 µM: GI50 (SF-295; read-out: pGI50 (converted))
5.13 µM: GI50 (MKN-7; read-out: pGI50 (converted))
4.2 µM: GI50 (DMS-273; read-out: GI50)
122%: Activity [4]
3.16 µM: GI50 (SNB-78; read-out: pGI50 (converted))
32.4 µM: GI50 (OVCAR-5; read-out: pGI50 (converted))
100 µM: TGI (SF-295; read-out: TGI) | TGI (SF-295; read-out: pTGI (converted)) | TGI (SNB-78; read-out: TGI) | TGI (SNB-78; read-out: pTGI (converted)) | CC50 (MKN-45; [6]) | TGI (MKN-45; read-out: TGI) | CC50 (MKN-45; [7]) | TGI (MKN-45; read-out: pTGI (converted)) | CC50 (St-4; [6]) | TGI (St-4; read-out: TGI) | CC50 (St-4; [7]) | TGI (St-4; read-out: pTGI (converted)) | TGI (MCF7; read-out: TGI) | TGI (MCF7; read-out: pTGI (converted)) | CC50 (DMS-273; [6]) | TGI (DMS-273; read-out: TGI) | CC50 (DMS-273; [7]) | TGI (DMS-273; read-out: pTGI (converted)) | CC50 (DMS-114; [6]) | TGI (DMS-114; read-out: TGI) | CC50 (DMS-114; [7]) | TGI (DMS-114; read-out: pTGI (converted)) | CC50 [2, 6] | TGI ([2]; read-out: TGI) | CC50 [2, 7] | TGI ([2]; read-out: pTGI (converted)) | CC50 (SF-539; [6]) | TGI (SF-539; read-out: TGI) | CC50 (SF-539; [7]) | TGI (SF-539; read-out: pTGI (converted)) | TGI (HCT-15; read-out: TGI) | TGI (HCT-15; read-out: pTGI (converted)) | TGI (OVCAR-5; read-out: TGI) | TGI (OVCAR-5; read-out: pTGI (converted)) | CC50 (NCI-H23; [6]) | TGI (NCI-H23; read-out: TGI) | CC50 (NCI-H23; [7]) | TGI (NCI-H23; read-out: pTGI (converted)) | TGI (OVCAR-3; read-out: TGI) | TGI (OVCAR-3; read-out: pTGI (converted)) | CC50 (A549; [6]) | TGI (A549; read-out: TGI) | CC50 (A549; [7]) | TGI (A549; read-out: pTGI (converted)) | CC50 (U-251; [6]) | TGI (U-251; read-out: TGI) | CC50 (U-251; [7]) | TGI (U-251; read-out: pTGI (converted)) | CC50 [3, 6] | TGI ([3]; read-out: TGI) | CC50 [3, 7] | TGI ([3]; read-out: pTGI (converted)) | TGI (NCI-H460; read-out: TGI) | TGI (NCI-H460; read-out: pTGI (converted)) | CC50 (ACHN; [6]) | TGI (ACHN; read-out: TGI) | CC50 (ACHN; [7]) | TGI (ACHN; read-out: pTGI (converted)) | CC50 (MKN-7; [6]) | TGI (MKN-7; read-out: TGI) | CC50 (MKN-7; [7]) | TGI (MKN-7; read-out: pTGI (converted))
5.1 µM: GI50 (MKN-7; read-out: GI50)
9.6 µM: GI50 (A549; read-out: GI50)
191%: Activity [5]
4.17 µM: GI50 (DMS-273; read-out: pGI50 (converted))
5 µM: GI50 (OVCAR-3; read-out: GI50)
44 µM: GI50 (NCI-H460; read-out: GI50)
32 µM: GI50 (OVCAR-5; read-out: GI50)
> 100 µM: GI50 (MKN-45; read-out: pGI50 (converted)) | CC50 (MCF7; [6]) | CC50 (MCF7; read-out: pLC50 (converted)) | GI50 ([2]; read-out: pGI50 (converted)) | GI50 (SF-539; read-out: GI50) | GI50 (SF-539; read-out: pGI50 (converted)) | CC50 (HCT-15; [6]) | CC50 (HCT-15; read-out: pLC50 (converted)) | GI50 (NCI-H23; read-out: GI50) | GI50 (NCI-H23; read-out: pGI50 (converted)) | CC50 (OVCAR-3; [6]) | CC50 (OVCAR-3; read-out: pLC50 (converted)) | GI50 ([3]; read-out: pGI50 (converted))
9.3 µM: GI50 (MCF7; read-out: GI50)
70.8 µM: GI50 (U-251; read-out: pGI50 (converted))
5.01 µM: GI50 (OVCAR-3; read-out: pGI50 (converted))
71 µM: GI50 (U-251; read-out: GI50)
9.33 µM: GI50 (MCF7; read-out: pGI50 (converted))
87 µM: GI50 (ACHN; read-out: GI50)
139%: Activity [1]
7.8 µM: GI50 (DMS-114; read-out: GI50)
9.55 µM: GI50 (A549; read-out: pGI50 (converted))
